Results on three molecules are retold here after patent US20260327216A1, “SUBSTITUTED OXAZOLONE COMPOUND FOR DECREASING LEVELS OF IKZF I-4 PROTEINS” (BRISTOL-MYERS SQUIBB COMPANY, priority 2023, published 2026).

As usually defined, the DC50 is the concentration giving 50% degradation. Low values mean degradation at low concentration, high ones degradation only at high concentration.

Test [1] addresses T1, IKZF2 Helios (Homo sapiens, UniProt Q96SW2+Q9UKS7). The test is described as follows: Human Regulatory T Cell Degradation Assay, IKZF2. To be noted: human regulatory T cells, 20 hours; for Dmax: Regulatory T cell, 100% = complete degradation, read-out: IKZF2 Helios max % deg. observed. The format is cell-based. Also on record: endogenous in cells; host or cells: FACS-sorted human CD4+CD127lowCD25+ Treg cells from healthy leukopaks. As for the experimental part: Cryopreserved human regulatory T cells were thawed in RPMI+10% FBS+20 ng/mL IL-2. After being spun at 1200 rpm for 5 mins, the cells were resuspended in RPMI+10% FBS+20 ng/mL and rested at 37° C. with 5% CO2 for 3 hours. The cells were then plated at 40,000 cells/well in 40 μL RPMI+10% FBS+20 ng/ml human IL-2 in a 384 well cell culture plate prior to using acoustic dispensing technology (ECHO 555) for adding compounds of interest. Cell cultures were incubated for 20 hours at 37° C. and 5% CO2. In order to facilitate analysis, cell cultures were spun down at 1200 rpm for 5 minutes and the supernatant was discarded using an EL406 plate washer. After washing three times with 70 μL PBS, cell pellets were resuspended in 50 μL of near IR viability staining solution (Life Technologies, Cat #L34975) and incubated for 30 minutes on ice protected from light. Cells were washed three times with 70 μL PBS+0.5% BSA using an EL406 plate washer. After shaking the plate to dislodge the cell pellet, cells were resuspended in 50 μL of Fixation Buffer (eBioScience FoxP3 buffer set 00-5523-00) for 60 minutes at room temperature. After centrifuging and discarding the supernatant, cells were permeabilized with 50 μL of permeabilization buffer (eBioScience FoxP3 buffer set 00-5523-00) for 10 minutes at room temperature. Following permeabilization, cells were spun down and the supernatant was replaced with 30 μL fluorescently labelled antibodies against the intracellular targets Helios (Helios-APC [BioLegend, Cat #137222, 1:50])]), Aiolos, and Ikaros 1× Permeabilization buffer and staining reactions were incubated for 1 bour at room temperature; protected from light. Subsequently, 30 μL of 1× Permeabilization buffer was added prior to centrifuging the cells and discarding the supernatant. Stained cells were resuspended in 30 μL of flow cytometry staining buffer (PBS+0.5% BSA) and analyzed using an Intellicyt Ique Plus flow cytometer.
Table B-1 lists the maximum observed degradation of the IKZF1 protein and IKZF2 protein as measured in the Human Regulatory T Cell Degradation assay. The results in Table B-1 were rounded to two digits. In the Human Regulatory T Cell Degradation assay, a value of 100% indicated no detectable protein remaining or complete degradation of the protein; and a value of 0% indicated no detectable degradation of the protein by the test compound.

Test [2] deals with T1, IKZF2 Helios. Nature of the test: Jurkat Cellular Degradation Assay, IKZF2. The format is cell-based. Also noted: endogenous in cells. To be noted: Jurkat cells, 72 h; for Dmax: Jurkat, human, 100% = complete degradation, 0% = no detectable degradation, read-out: IKZF2 Helios max % deg. observed. As for the experimental part: Jurkat cells were plated at 80,000 cells/well in 40 μL RPMI+10% FBS in a 384-well cell culture plate prior to using acoustic dispensing technology for adding a compound of interest. Cell cultures were incubated for 72 h at 37° C. and 5% CO2. In order to facilitate analysis, cell cultures were spun down at 200 rpm for 5 min and the supernatant was discarded. After shaking the plate to dislodge the cell pellet, cells were resuspended in 50 μL of Fixation Buffer (eBioscience FoxP3 buffer set 00-5523-00) for 60 min at room temperature. After centrifuging and discarding the supernatant, cells were permeabilized with 50 μL of Permeabilization buffer (eBioscience FoxP3 buffer set 00-5523-00) for 10 min at room temperature. Following permeabilization, cells were spun down and the supernatant was replaced with 20 μL fluorescently labelled antibodies against Helios, Ikaros and Aiolos or corresponding Isotype controls in 1× Permeabilization buffer (Ikaros-Alexa488 [Biolegend, Cat #368408, 1:50], Helios-PE [CST, Cat #29360, 1:50], Aiolos-Alexa647 [Biolegend, Cat #371106 Biolegend, 1:25]) and staining reactions were incubated for 1 h at room temperature while protected from light. Subsequently, 30 μL of 1× Permeabilization buffer was added prior to centrifuging the cells and discarding the supernatant. Stained cells were resuspended in 25 μL of flow cytometry staining buffer [PBS+0.2% bovine serum albumin (BSA)] and analyzed using an Intellicyt Ique Plus flow cytometer.
Table A-1 lists the maximum observed degradation of the IKZF1 protein, IKZF2 protein, and IKZF3 protein as measured in the Jurkat Cellular Degradation assay. The results in Table A-1 were rounded to two digits. In the Jurkat Cellular Degradation assay, a value of 100% indicated no detectable protein remaining or complete degradation of the protein; and a value of 0% indicated no detectable degradation of the protein by the test compound.

The mark [3] stands for this setting: concentration reducing protein level by 50% vs DMSO.

The structures appear in SMILES notation.

T1 sequence (Q9UKS7 whole entry): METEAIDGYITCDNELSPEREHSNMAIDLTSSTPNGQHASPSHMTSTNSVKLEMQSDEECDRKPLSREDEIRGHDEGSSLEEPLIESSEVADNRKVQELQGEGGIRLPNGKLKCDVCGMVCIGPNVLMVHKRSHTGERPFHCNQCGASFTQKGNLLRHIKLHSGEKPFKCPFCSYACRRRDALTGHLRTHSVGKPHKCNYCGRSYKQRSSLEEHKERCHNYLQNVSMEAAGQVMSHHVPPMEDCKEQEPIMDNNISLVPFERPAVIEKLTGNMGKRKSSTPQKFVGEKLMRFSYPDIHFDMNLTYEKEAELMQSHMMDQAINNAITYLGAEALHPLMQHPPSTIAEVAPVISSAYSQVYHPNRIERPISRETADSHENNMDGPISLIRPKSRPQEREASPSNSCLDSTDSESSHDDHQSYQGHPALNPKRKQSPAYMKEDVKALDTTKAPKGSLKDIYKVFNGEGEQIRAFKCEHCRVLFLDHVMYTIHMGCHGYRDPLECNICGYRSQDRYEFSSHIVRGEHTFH
T1 sequence (Q96SW2 whole entry): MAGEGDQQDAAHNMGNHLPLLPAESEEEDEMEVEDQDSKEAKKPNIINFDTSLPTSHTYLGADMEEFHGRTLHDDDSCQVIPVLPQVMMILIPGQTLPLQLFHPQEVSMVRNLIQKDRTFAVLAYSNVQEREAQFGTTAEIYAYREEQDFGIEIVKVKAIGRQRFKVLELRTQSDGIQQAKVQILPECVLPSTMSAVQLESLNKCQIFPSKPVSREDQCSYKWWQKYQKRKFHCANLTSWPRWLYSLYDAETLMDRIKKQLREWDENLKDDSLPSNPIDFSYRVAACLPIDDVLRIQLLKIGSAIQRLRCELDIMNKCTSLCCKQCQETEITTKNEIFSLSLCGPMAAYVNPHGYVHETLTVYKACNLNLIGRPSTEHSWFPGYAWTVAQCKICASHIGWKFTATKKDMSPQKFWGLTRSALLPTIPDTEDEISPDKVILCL
T1 sequence (Q16531 whole entry partner): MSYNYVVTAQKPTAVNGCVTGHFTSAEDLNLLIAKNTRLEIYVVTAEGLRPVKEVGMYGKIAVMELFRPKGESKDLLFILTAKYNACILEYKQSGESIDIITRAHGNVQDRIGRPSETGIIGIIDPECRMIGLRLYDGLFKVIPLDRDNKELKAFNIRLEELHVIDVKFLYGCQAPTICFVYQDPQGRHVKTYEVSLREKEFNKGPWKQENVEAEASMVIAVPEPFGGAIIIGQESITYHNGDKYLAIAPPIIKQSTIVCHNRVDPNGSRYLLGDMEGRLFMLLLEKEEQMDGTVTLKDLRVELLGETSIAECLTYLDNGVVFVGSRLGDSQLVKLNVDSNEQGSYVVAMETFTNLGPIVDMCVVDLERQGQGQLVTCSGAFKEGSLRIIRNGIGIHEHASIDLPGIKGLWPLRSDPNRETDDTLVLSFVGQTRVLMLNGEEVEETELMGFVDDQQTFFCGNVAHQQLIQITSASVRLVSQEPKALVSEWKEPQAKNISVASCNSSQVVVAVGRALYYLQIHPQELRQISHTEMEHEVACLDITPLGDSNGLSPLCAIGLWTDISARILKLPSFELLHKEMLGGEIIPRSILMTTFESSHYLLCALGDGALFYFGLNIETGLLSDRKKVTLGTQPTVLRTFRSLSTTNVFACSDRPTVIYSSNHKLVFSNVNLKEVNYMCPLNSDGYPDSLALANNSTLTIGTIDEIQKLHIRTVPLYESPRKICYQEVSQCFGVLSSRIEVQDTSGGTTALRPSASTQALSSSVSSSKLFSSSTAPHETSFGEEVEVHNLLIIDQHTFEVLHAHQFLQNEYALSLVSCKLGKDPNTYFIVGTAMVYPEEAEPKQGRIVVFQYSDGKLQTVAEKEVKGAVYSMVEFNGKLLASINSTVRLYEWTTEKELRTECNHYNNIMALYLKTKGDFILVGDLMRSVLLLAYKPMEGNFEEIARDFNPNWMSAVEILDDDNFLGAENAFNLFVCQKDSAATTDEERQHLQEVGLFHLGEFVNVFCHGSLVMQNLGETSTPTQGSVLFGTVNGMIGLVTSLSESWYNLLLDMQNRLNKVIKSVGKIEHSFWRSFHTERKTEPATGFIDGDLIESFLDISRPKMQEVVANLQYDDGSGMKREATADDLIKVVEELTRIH

For the molecule `O=C1CCC(n2cc(-c3ccc(Br)cc3F)oc2=O)C(=O)N1` (stereo not shown) [Comparative Compound B, 3-(5-(4-bromo-2-fluorophenyl)-2-oxooxazol-3(2H)-yl)piperidine-2,6-dione], the Dmax at IKZF2 Helios [1] was found to be 25%.

As for `Cc1cc(-c2ccc(-c3cn(C4CCC(=O)NC4=O)c(=O)o3)c(F)c2)nc(N)c1OC(F)F` (stereo not shown) [Example 1, 3-(5-(4-(6-Amino-5-(difluoromethoxy)-4-methylpyridin-2-yl)-2-fluorophenyl)-2-oxooxazol-3(2H)-yl)piperidine-2,6-dione], the Dmax was 90% on IKZF2 Helios [1] and greater than 90% on IKZF2 Helios [2]. The DC50 at IKZF2 Helios [1] (setting [3]) came out at 0.68 nM; at IKZF2 Helios [2] (setting [3]), 17.9 nM.

On to `O=C1CCC(n2cc(-c3ccccc3)oc2=O)C(=O)N1` (stereo not shown) [Comparative Compound A, 3-(2-oxo-5-phenyloxazol-3(2H)-yl)piperidine-2,6-dione], for which the results for the Dmax at IKZF2 Helios [1] and at IKZF2 Helios [2] were 57% and less than 30%, respectively.
